Our source for the IC50 values is ChEMBL document CHEMBL1795300, “Fluorescent phosphoinositide 3-kinase inhibitors suitable for monitoring of intracellular distribution” (Bioorg Med Chem, 2011).

Test [1] can be described thus: Inhibition of PI3K assessed as amount of ADP produced preincubated with compound and L-alpha-phosphatidylinositol for 5 mins by Glo Max luminescent kinase assay.
The test system of the next test is T47D. The test can be described thus: Antiproliferative activity against human T47D cells after 48 hrs by MTT assay. It counts as functional, cell-based. (Formazan colour is commonly taken as a measure of viable cells.)
For a further test, the system named is SK-BR-3. The test is described as follows: Antiproliferative activity against human SKBR3 cells after 48 hrs by MTT assay. The class given is functional, cell-based. The note with it: SK-BR-3, 48 h.
The subject of the next test is MCF7. The test can be described thus: Antiproliferative activity against human MCF7 cells after 48 hrs by MTT assay. It counts as functional, cell-based. The note with it: MCF7, 48 h.

In the case of `COc1ccc(-n2c(-c3ccc(N(C)C)cc3)nc3c2c(=O)n(C)c(=O)n3C)cc1`, the IC50 in test [1] came to 22 µM.
The same measure, in the same setting: under `COc1ccc(-n2c(-c3cccc(NS(C)(=O)=O)c3)nc3c2c(=O)n(C)c(=O)n3C)cc1` stands 3.2 µM.
For `COc1ccc(-n2c(-c3ccc(NC(C)=O)cc3)nc3c2c(=O)n(C)c(=O)n3C)cc1`, the IC50 is 3.7 µM in the test on T47D, 0.15 µM in test [1], greater than 25 µM with SK-BR-3 and 9.4 µM in the test with MCF7.
`COC(=O)Nc1ccc(-c2nc3c(c(=O)n(C)c(=O)n3C)n2-c2ccc(OC)cc2)cc1`: the IC50 in the test on T47D is 1.7 µM; in test [1], 0.21 µM; with SK-BR-3 it was greater than 25 µM; with MCF7, 4.2 µM.
For `COc1ccc(-n2c(-c3cnccc3NS(C)(=O)=O)nc3c2c(=O)n(C)c(=O)n3C)cc1`, the IC50 in test [1] was greater than 30 µM.
Same read-out and setting: under `COc1ccc(-n2c(-c3cncc(NS(C)(=O)=O)c3)nc3c2c(=O)n(C)c(=O)n3C)cc1` stands 4.5 µM; under `COc1ccc(-n2c(-c3cncc(NS(=O)(=O)c4ccccc4)c3)nc3c2c(=O)n(C)c(=O)n3C)cc1`, 0.091 µM; under `COc1ccc(-n2c(-c3cncc(NS(=O)(=O)c4ccc(C)cc4)c3)nc3c2c(=O)n(C)c(=O)n3C)cc1`, 0.22 µM.
Still for that read-out and setting: under `COc1ccc(-n2c(-c3ccc(N(C)C)cc3)nc3c2c(=O)n(C)c(=O)n3C)cc1OC` stands 25 µM.
Consider `COc1ccc(-n2c(-c3ccc(NC(C)=O)cc3)nc3c2c(=O)n(C)c(=O)n3C)cc1OC`, for which the half-inhibitory concentration (IC50) in test [1] worked out at 0.51 µM.
Regarding `CC(=O)Nc1ccc(-c2nc3c(c(=O)n(C)c(=O)n3C)n2-c2ccccc2)cc1`, the concentration for half-maximal inhibition (IC50) in test [1] is 12.5 µM.
On to `CC(=O)Nc1ccc(-c2nc3c(c(=O)n(C)c(=O)n3C)n2-c2ccc(C)cc2)cc1`, for which the IC50 in test [1] was determined as 0.37 µM.
Regarding `COc1ccc(-n2c(-c3ccc(N(C)C)cc3)nc3c2c(=O)n(C)c(=O)n3C)cc1F`, the concentration for half-maximal inhibition (IC50) in test [1] turned out to be 22 µM.
Consider `COc1ccc(-n2c(-c3ccc(NC(C)=O)cc3)nc3c2c(=O)n(C)c(=O)n3C)cc1F`, for which the IC50 in the test with T47D is 1.6 µM; in test [1], 0.031 µM; in the test on SK-BR-3, 11.5 µM; in the test on MCF7 it was 2.8 µM.
As to `CNC(=O)Nc1ccc(-c2nc3c(c(=O)n(C)c(=O)n3C)n2-c2ccc(OC)c(F)c2)cc1`, the IC50 with T47D is 4.7 µM; in test [1], 0.017 µM; with SK-BR-3, greater than 25 µM; in the test on MCF7, 11.6 µM.
`COc1ccc(-n2c(-c3ccc(NC(C)=O)c(OC)c3)nc3c2c(=O)n(C)c(=O)n3C)cc1F`: the 50% inhibitory concentration (IC50) in test [1] was determined as 8.5 µM.
The same measure, in the same setting: the value for `CN(C)c1ccc(-c2nc3c(c(=O)n(C)c(=O)n3C)n2-c2cccc(F)c2)cc1` was 20 µM.
Consider `CC(=O)Nc1ccc(-c2nc3c(c(=O)n(C)c(=O)n3C)n2-c2cccc(F)c2)cc1`, for which the concentration for half-maximal inhibition (IC50) in the test on T47D was 0.9 µM; in test [1], 0.068 µM; in the test with SK-BR-3, 15.4 µM; in the test with MCF7, 1.7 µM.
Turning to `COc1cc(N(C)C)ccc1-c1nc2c(c(=O)n(C)c(=O)n2C)n1-c1cccc(F)c1`, the IC50 in test [1] was found to be 22 µM.
Take `CN(C)c1ccc(-c2nc3c(c(=O)n(C)c(=O)n3C)n2-c2cc(F)cc(F)c2)cc1`: the IC50 in test [1] stood at 25 µM.
On the same count and under the same terms, the value for `COc1cc(N(C)C)ccc1-c1nc2c(c(=O)n(C)c(=O)n2C)n1-c1cc(F)cc(F)c1` was 15 µM; that for `CN(C)c1ccc(-c2nc3c(c(=O)n(C)c(=O)n3C)n2-c2ccc(Cl)c(Cl)c2)cc1` was greater than 30 µM; that for `CC(=O)Nc1ccc(-c2nc3c(c(=O)n(C)c(=O)n3C)n2-c2ccc(Cl)c(Cl)c2)cc1` was 0.28 µM.
`COc1cc(NC(C)=O)ccc1-c1nc2c(c(=O)n(C)c(=O)n2C)n1-c1ccc(Cl)c(Cl)c1`: in test [1], the 50% inhibitory concentration (IC50) is 13 µM.

As usually defined, the IC50 is the concentration needed to halve the response being measured.
